Data on one molecule can be found in US7147872B2, “Environmentally compatible processes compositions and materials treated thereby” (Pimi Marion Holdings, Ltd., priority 1998, dated 2006).

In this assay the test system is potato seeds. Kind of assay: Dry fog treatment of potato seeds to prevent sprouting, H2O2 with Ag and Cu ion (Example 19). The format is in vivo. The following applies: H2O2 500 PPM, Ag ion 0, Cu ion 0; 90% RH, 10° C. The source says: The results were as follows:

Turning to `OO` [H2O2, hydrogen peroxide], the “Sprouting (%) one month” value is listed as 8%, the “Sprouting (%) three months” value was found to be 32% and the “Sprouting (%) two months” value is 22%.
